According to paper PMC12406258, “Uncovering the Unusual Inhibition Mechanism of a Trypanosome Alternative Oxidase Inhibitor Displaying Broad-Spectrum Activity against African Animal Trypanosomes” (Journal of Medicinal Chemistry, 2025):
Values joined by “and” are separate entries in the source; they are usually repeats but may differ in a detail not shown here. Identical values can stand only once. Like-named read-outs stand apart in the source and are kept apart here.

Experiments:
[1] = molecular target: T1, recombinant TAO (ΔMTS rTAO) (Trypanosoma brucei brucei, UniProt Q26710); conditions: ref earlier reports; cited from earlier work
T1 construct: […]; SUMO (Small Ubiquitin-related Modifier) fusion from the expression system; made in house
T1 sequence (Q26710 26-329, stated change not applied): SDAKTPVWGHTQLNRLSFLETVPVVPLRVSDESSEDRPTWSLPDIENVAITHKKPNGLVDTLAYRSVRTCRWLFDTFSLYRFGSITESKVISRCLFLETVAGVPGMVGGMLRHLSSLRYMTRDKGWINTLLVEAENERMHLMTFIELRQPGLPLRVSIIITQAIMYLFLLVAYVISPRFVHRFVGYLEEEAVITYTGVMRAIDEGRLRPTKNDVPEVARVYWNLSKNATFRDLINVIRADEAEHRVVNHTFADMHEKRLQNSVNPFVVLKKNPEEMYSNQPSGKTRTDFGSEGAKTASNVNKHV

[2] = molecular target: T1, recombinant TAO (ΔMTS rTAO); assay: Inhibition of ubiquinol oxidase activity of purified recombinant TAO; format: biochemical, T. brucei
Method: This physiologically relevant rTAO enzyme was used throughout this work and in this experiment to study the inhibitory activity of 1.
As previously described, the Ubiquinol oxidase activity measurement was carried out using recombinant TAO lacking the mitochondrial targeting signal (ΔMTS). […] The reaction was carried out in a 1 cm cuvette for 2 min using a V-630 Jasco UV–vis spectrophotometer (Jasco Corporation, Tokyo, Japan). Briefly, the procedure involves preincubating 250 ng of the enzyme for 2 min in a 50 mM Tris-HCl (pH 7.3) buffer containing the detergent octaethylene glycol monododecylether (0.05% (w/v)) in a total reaction volume of 1 mL at 25 °C. […] For the inhibition reaction, 250 ng of the enzyme was preincubated with varying inhibitor concentrations for 2 min using the same buffer before the substrate was added. […] This was achieved using the same protocol but without TAO. […] The residual activities were plotted against the corresponding inhibitor concentration in a GraphPad Prism-9 software to obtain the IC50 value.

[3] = molecular target: T1, recombinant TAO (ΔMTS rTAO); conditions: ref reported earlier, cited from earlier work
[4] = test system: STIB900 mouse model; parameters: method as in previous studies; conditions: 24 h after the last treatment, 4 × 10 mg/kg ip; ref previous studies; cited from earlier work
[5] = parameters: method as in previous studies; conditions: ref previous studies, cited from earlier work
[6] = test system: T. b. brucei WT (s427) trypomastigotes; assay: microbe, parasite or virus in culture; format: cell-based; conditions: Trypanosoma brucei
Method: (§1) Other Trypanosoma species used in this study include T. evansi AntTat 3/3 (Wild-type); and T. equiperdum BoTat 1 (Bordeaux trypanozoon antigenic type 1) P (wild-type). All the trypanosomes were used only as bloodstream trypomastigotes and cultured in the standard Hirumi’s Modified Iscove’s medium #9 (HMI-9), supplemented with 10% heat-inactivated Fetal Bovine Serum (FBS), 14 μL/L β-mercaptoethanol, and 3.0 g sodium hydrogen carbonate per liter of medium (pH 7.4). Trypanosomes were cultured in vented flasks at 37 °C in a 5% CO2 atmosphere.
(§2) Briefly, this protocol involves preparing a 96-well cell culture plate with a 100 μL serially diluted test compound (200 μM top concentration) in HMI-9 + 10% FBS (24 wells per control drug or test compound, with the 24th well serving as drug-free). This is followed by adjusting the cell density of mid-log-phase trypanosome cultures to the required concentration of 2 × 10^5 cells/mL (2 × 10^4 cells/well). […] All incubations were carried out at 37 °C with 5% CO2. […] EC50 values were calculated using GraphPad Prism 9.0 software via nonlinear regression with an equation for a sigmoidal dose–response curve with variable slope (GraphPad Software Inc., San Diego, CA, USA).

[7] = test system: T. evansi WT; assay: Resazurin-based drug sensitivity assay, T. evansi WT; format: cell-based
Method: as §1, §2

[8] = test system: T. equiperdum WT; assay: Resazurin-based drug sensitivity assay, T. equiperdum WT; format: cell-based; conditions: Trypanosoma equiperdum
Method: as §1, §2

[9] = test system: T. congolense WT; assay: Drug sensitivity assay, T. congolense WT bloodstream forms; format: cell-based; conditions: Trypanosoma congolense
Method: The susceptibilities of trypanosomes to compound 1 were determined as previously described using the resazurin (Alamar Blue) assay. Briefly, this protocol involves preparing a 96-well cell culture plate with a 100 μL serially diluted test compound (200 μM top concentration) in HMI-9 + 10% FBS (24 wells per control drug or test compound, with the 24th well serving as drug-free). This is followed by adjusting the cell density of mid-log-phase trypanosome cultures to the required concentration of 2 × 10^5 cells/mL (2 × 10^4 cells/well). Then, 100 μL of the adjusted cell density/culture was added to all 24 wells in the plate, then incubating trypanosomes and test compound for 48 h followed by the addition of 20 μL filter-sterilized resazurin solution prepared by adding 25 mg resazurin sodium salt to 200 mL filter-sterilized PBS. This was followed by a further 24 h of incubation. All incubations were carried out at 37 °C with 5% CO2. […] Fluorescence was measured in the 96-well plates with a FLUOstar Optima (BMG Labtech, Durham, NC, USA) at wavelengths of 544 nm for excitation, 590 for emission, and a gain of 1250. EC50 values were calculated using GraphPad Prism 9.0 software via nonlinear regression with an equation for a sigmoidal dose–response curve with variable slope (GraphPad Software Inc., San Diego, CA, USA).

[10] = test system: T. brucei B48; assay: microbe, parasite or virus in culture; format: cell-based, T. b. brucei; conditions: Trypanosoma brucei, read-out: T. brucei B48 EC50
Method: as §1, §2

[11] = test system: T. brucei aqp1-3 null; assay: microbe, parasite or virus in culture; format: cell-based, T. b. brucei; conditions: Trypanosoma brucei, read-out: aqp1-3 null EC50
Method: as §1, §2

[12] = test system: T. b. brucei SUR10; assay: microbe, parasite or virus in culture; format: cell-based; conditions: Trypanosoma brucei, read-out: SUR10 EC50
[13] = read-out: IC50 against rTAO, activity against TAO reported earlier
[14] = read-out: rTAO IC50 (supplementary csv, compounds 4, 6, 8-10, 12), IC50 (µM)

In the case of `C/C(=C\Cc1c(O)c(Cl)c(C)c(C=O)c1O)CC/C=C(\C)[C@@H]1CC(=O)C(C)(C)O1` [AF, Ascofuranone, reference compound], the “Type of inhibition of TAO” value [1] is listed as “competitive”.

Molecule `Cc1cc(O)cc(O)c1C(=O)OCCCCCCCCCCCCCC[P+](c1ccccc1)(c1ccccc1)c1ccccn1` [Compound 2, {14-[(2,4-Dihydroxy-6-methylbenzoyl)-oxy]-tetradecyl}-diphenyl(pyridin-2-yl)-Phosphonium Bromide] has an IC50 [2] of 1600 nM.

With `Cc1cc(O)ccc1C(=O)CCCCCCCCCCCCCCC[P+](c1ccccc1)(c1ccccc1)c1ccccn1.[Br-]` [Compound 3] the IC50 [2] was over 5000 nM and the “Inhibition of TAO at the highest concentration tested” value ([2]; 5 μM) was “did not inhibit”.

For `Cc1cc(O)ccc1C(=O)OCCCCCCCCCCCCCC[P+](c1ccccc1)(c1ccccc1)c1ccccc1` [Compound 4], the IC50 [3, 13] is listed as 0.081 µM and ~0.08 µM.

In the case of `Cc1cc(O)ccc1C(=O)OCCCCCCCCCCCCCC[n+]1cccc2ccccc21.[Br-]` [Compound 6], the IC50 [3, 14] is given as 0.03 ± 0.005 µM and the “Type of inhibition of TAO” value [1] is given as “competitive”.

`Cc1c(Cl)c(O)c(Cl)c(O)c1C(=O)OCCCCCCCCCCCCCC[P+](c1ccccc1)(c1ccccc1)c1ccccc1` [Compound 7, {14-[(3,5-Dichloro-2,4-dihydroxy-6-methylbenzoyl)-oxy]-tetradecyl}-Triphenylphosphonium Bromide] gave an IC50 [2] of 160 nM.

For `Cc1cc(O)cc(O)c1C(=O)OCCCCCCCCCCCCCC[P+](c1ccccc1)(c1ccccc1)c1ccccc1.[Br-]` [Compound 8], the IC50 [3, 13] is listed as ~0.08 µM and 0.088 µM, the “Type of inhibition of TAO” value [1] is listed as “competitive” and the Reduction of parasitemia [4] is listed as 95%. The “Half-life (phase 2 metabolism)” value ([5]; S9 fraction and cofactor UDPGA) was “approximately 2 h”.

In the case of `Cc1cc(O)cc(O)c1C(=O)OCCCCCCCCCCCCCC[n+]1cccc2ccccc21.[Br-]` [Compound 9], the IC50 [3, 14] is listed as 0.104 ± 0.011 µM, the Reduction of parasitemia [4] is listed as 95% and the “Phase 2 metabolism” value [5] is listed as “lack of phase 2 metabolism”.

For `Cc1cc[n+](CCCCCCCCCCCCCCOC(=O)c2c(C)cc(O)cc2O)cc1` [Compound 10], the IC50 [3, 14] is listed as over 5 µM.

For `N=C(N)c1ccc(/N=N/Nc2ccc(C(=N)N)cc2)cc1` [Dim., Diminazene aceturate], the EC50 ([6]; read-out: T. b. brucei WT (+5 mM glycerol) EC50) was 81 ± 13 nM, the EC50 ([6]; read-out: T. b. brucei WT (no glycerol) EC50) was 65 ± 21 nM and the EC50 [7] was 51.4 ± 12 nM. For the same molecule, the EC50 [8] was 33.2 ± 10 nM, the EC50 [9] was 252 ± 18 nM and the EC50 [10] was 1220 ± 20 nM.

Molecule `N=C(N)c1ccc(OCCCCCOc2ccc(C(=N)N)cc2)cc1` [Pent., Pentamidine isethionate] has an EC50 ([6]; read-out: T. b. brucei WT (+5 mM glycerol) EC50, incubated in the presence of 5 mM glycerol) of 6.2 ± 1.7 nM, an EC50 ([6]; s427, no glycerol, n ≥ 4, read-out: T. b. brucei WT (no glycerol) EC50) of 4.2 ± 0.8 nM and an EC50 [7] of 5.1 ± 2.1 nM. It also gave an EC50 [8] of 8.1 ± 1.1 nM, an EC50 [10] of 1020 ± 200 nM and an EC50 [11] of 51.4 ± 11.8 nM.

Work on `O=C(NO)c1ccccc1O` [SHAM, Salicylhydroxamic acid] yielded an EC50 [11] of 6880 ± 110 nM.

For `Cc1ccc(C(=O)Nc2ccc(S(=O)(=O)O)c3cc(S(=O)(=O)O)cc(S(=O)(=O)O)c23)cc1NC(=O)c1cccc(NC(=O)Nc2cccc(C(=O)Nc3cc(C(=O)Nc4ccc(S(=O)(=O)O)c5cc(S(=O)(=O)O)cc(S(=O)(=O)O)c45)ccc3C)c2)c1` [Suramin, reference compound], the EC50 [12] was 190 ± 20 nM.
